Data reported in paper PMC9848257, “Design and synthesis of novel rigid dibenzo[b,f]azepines through ring closure technique as promising anticancer candidates against leukaemia and acting as selective topoisomerase II inhibitors and DNA intercalators” (Journal of Enzyme Inhibition and Medicinal Chemistry, 2023).

Tests used:
[1] = Liver enzymes (ALT, AST) in SEC-bearing mice; format: in vivo, Swiss albino mice; details: 6 mg/Kg B.W., IP
Protocol: (§1) The full methodology of tumour induction, treatments, and blood measurements was carried out according to the described details in the supporting information (SI 5). Moreover, the experimental protocol was approved by the Research Ethics Committee at Suez Canal University (Approval number REC139/2022, Chemistry Department, Faculty of Science, Suez Canal University). […]
(§2) that were I.P. implanted into each normal mouse. SEC cells (1 × 10^6 tumor cells/mouse) were implanted subcutaneously into the right thigh of the hind limb.
(§3) The experimental animals were randomly divided into four groups. Group 1 served as the normal saline control. Group 2 served as the SEC control (1 × 10^6 cells/mouse). Group 3 served as the compound-treated group (6 mg/kg B.Wt., I.P.). Group 4 received the standard anticancer drug of […]
survival were recorded daily until the 24th day in both treated and control groups. At the end of experiment, the blood of each group was collected under light anesthesia for estimation of hematological and biochemical assays. The anesthetized animals were then sacrificed for evaluation of the antitumor activity and histopathological examination. […]
At the end of the experiment, animals from different groups were sacrificed, and blood samples were collected for determination of liver enzymes ALT, AST levels. Activities of aspartate aminotransferase (AST) and alanine aminotransferase (ALT) were evaluated using commercial kits (ELITech clinical systems, France). […]

leukaemia SR cells = experiment: Anti-proliferative effect against SR cell line (MTT assay); format: cell-based
Protocol: The anti-proliferative effect of the 5e counterpart against the SR cell line was estimated using the MTT assay protocol.
Depending on the previous results, the cytotoxic activity of the designed candidate 5e was then evaluated against leukaemia SR cells. Doxorubicin was also evaluated as a reference drug.

[2] = test system: Solid Ehrlich carcinoma (SEC); experiment: In vivo anti-tumour activity in SEC-bearing mice; set-up: species or system Swiss albino mice; details: 6 mg/Kg B.W., IP
Protocol: as §1
(§4) SI 5.1. Animals and tumor cell line
(§5) Adult female Swiss albino mice purchased from Theodor Bilharzia Research Institute, Giza, Egypt, with an average body weight of (18-23) g was used. Mice were housed under constant conditions of 12 h light/dark cycle in a […], with free access to standard laboratory mice food and water.
All procedures related to care and maintenance of the animals were performed according to the international guiding principles for animal research and approved by Faculty of Science, Suez Canal University bioethics and animal ethics committee (Approval number REC-01-2022).
Solid Ehrlich carcinoma (SEC) were got from the National Cancer Institute (Cairo University, Egypt). The tumor cell line was proliferated in mice through serial intraperitoneal (I.P.) transplantation of a volume of 0.2 mL physiological saline contains 1 × 10^6 viable cells for 24 h. SEC cells were collected 7 days after I.P. implantation. The harvested cells were diluted with saline to obtain a concentration of 5 × 10^6 viable SEC cells/mL. A volume of 0.2 mL saline contains 1 × 10^6 SEC cells […]
as §2, §3
survival were recorded daily until the 24th day in both treated and control groups. At the end of experiment, the blood of each group was collected under light anesthesia for estimation of hematological and biochemical assays. The anesthetized animals were then sacrificed for evaluation of the antitumor activity and histopathological examination.
SI 5.2. Antitumor potentiality
It includes tumor volume, weight, and tumor inhibition ration (TIR%). Time interval measurements of tumor volume using digital Vernier caliper (Tricle Brand, Shanghai, China). Measure tumor length and width using clipper and then calculate tumor volume using formulations V = (L x W x W)/2, where V is tumor volume, W is tumor width, L is tumor length. While TIR% was calculated according to the following equation: […]. […]

SR cells [3] = experiment: Cell cycle analysis (propidium iodide staining); format: cell-based
Protocol: This test was performed using propidium iodide (PI) staining following the detailed procedure in the supporting information (SI 3)[38].
The topoisomerase II inhibitory evaluation, besides the cytotoxicity results of the new compounds, encouraged us to assess the effect of 5e (the most promising candidate) on cell cycle progression in SR cells.
(§6) SI 3. Cell cycle analysis
(§7) Leukemia SR cells were grown in six-well plates (each one contains 2 x 10^5 cells per well) containing 10% fetal bovine serum and incubated for 24 h at 37 °C and 5% CO2. The medium was replaced with (DMSO 1% v/v) containing the 3.1 µM of compound 5e, then incubated for 48 h, collected and washed with cold phosphate buffered saline (PBS). After fixation of the collected cells with ice-cold absolute ethanol (70%), the cells were rinsed with PBS then stained with the DNA fluorochrome PI, kept for 15 min at 37 °C. Then samples were analyzed with a FACS Caliber flow cytometer.
(§8) SI 4. Detection of apoptosis
(§9) Apoptotic activity of compound 5e was evaluated using Annexin V-FITC/PI apoptosis detection kit.
(§10) Leukemia SR cells ([…]) were seeded and incubated with compound 5e for 48 h, trypsinized, collected and washed with phosphate-buffered saline (PBS) several times; SR cells were stained with Annexin V fluorescein isothiocyanate (FITC) and counterstained with propidium iodide (PI) for 15 min at 37 °C in the dark using the apoptosis detection kit (BD Biosciences, San Jose, CA) according to the manufacturer's protocol. Then, Annexin V-FITC and PI binding were analysed by a FACS Caliber flow cytometer.
as §4
as §5, with “water. […]” for “water.”

SR cells [4] = experiment: Apoptosis analysis (Annexin-V staining assay); format: cell-based
Protocol: The apoptotic analysis was performed according to the detailed description in the supporting information (SI 4)[39].
Annexin-V staining assay was applied to determine the apoptosis induced by compound 5e. […] In detail, 13.61% and 24.33% for the early phase and late phase of apoptosis, respectively, with respect to the control (0.44%, and 0.16%, respectively). Annexin V/PI staining histograms are supported in the supporting information (Figure SI 2).
as §6, §7, §8, §9, §10, §4
as §5, with “water. […]” for “water.”

Work on `O=[N+]([O-])c1ccc(-c2nnc(N3c4ccccc4C=Cc4ccccc43)o2)cc1` [Compound 5e, 2-(5 h-Dibenzo[b,f]azepin-5-yl)-5–(4-nitrophenyl)-1,3,4-oxadiazole] yielded an ALT ([1]; SEC control 65.9 U/L) of 39.8 U/L, an AST ([1]; SEC control 71 U/L) of 35.6 U/L and an IC50 (leukaemia SR cells; Homo sapiens, leukaemia SR cells, unit as in head of Table 3, read-out: Cytotoxicity IC50, SR) of 13.1 ± 0.62 µM. The “SI (selectivity index)” value (leukaemia SR cells; normal cell line PSC-800-011 versus SR) was 3.36, the “Tumour inhibition ratio (TIR%)” value [2] was 62.7% and the Solid tumour mass ([2]; SEC control 226 mg) was 96.3 mg. The Tumour volume ([2]; SEC control 80.6 mm^3) was 30.1 mm^3, the “Cell cycle arrest phase” value (SR cells [3]) was “G1 phase” and the “Cell levels in G1 phase” value (SR cells [3]; 3.1 µM of compound 5e, 48 h, control 52.84%) was 61.29%. For the same molecule, the “S phase % of the examined cells” value (SR cells [3]; 3.1 µM of compound 5e, 48 h, untreated 34.18%) was 36.86%, the “Increase of the apoptosis ratio compared to the untreated cells” value (SR cells [4]; concentration equivalent to IC50 (13.05 µM), 48 h) was 37.34% and the “Late phase of apoptosis” value (SR cells [4]; concentration equivalent to IC50, control 0.16%) was 24.33%. For the same molecule, the “Early phase of apoptosis” value (SR cells [4]; concentration equivalent to IC50, control 0.44%) was 13.61%.
